Test [1] has as its system chinch bugs collected from Florida Study (b) lawns. Description: University of Florida laboratory bioassay of bifenthrin susceptibility. Format: in vivo, Blissus hirsutus. The conditions noted are these: bugs sampled from the treated lawns. As for the experimental part: (§1) Seven St. Augustine grass lawns were treated several times in the summer of 2005 with bifenthrin at 0.2 lb/A (220 g/ha), the highest registered dose of the most widely-used product used for control of southern chinch bugs in Florida.

Test [2] has as its system pyrethroid-resistant chinch bugs (southern chinch bugs). Briefly: Florida Study (b): seven St. Augustine grass lawns, chinch bug counts. The format is in vivo, Blissus hirsutus. The procedure: (§2) The following tests were performed to show the efficacy of combinations containing imidacloprid and bifenthrin against pyrethroid-resistant chinch bugs (Blissus hirsutus).
as §1
In October of 2005 the lawns were sampled, and the average population of chinch bugs in each lawn was 571 bugs/ft^2 (i.e., 571 bugs per about 930 cm^2), an exceedingly heavy population. After this sampling was done, the seven lawns were treated with a soluble concentrate formulation of a product containing imidacloprid plus bifenthrin at 0.25 lb/A plus 0.2 lb/A (280 g/ha plus 220 g/ha). Six days after treatment, the lawns were again sampled, at which time an average of 6 chinch bugs/ft^2 (i.e., 6 bugs per about 930 cm^2) was observed.

The subject of test [3] is southern chinch bugs (pyrethroid-resistant chinch bugs). Briefly: Florida Study (a): St. Augustine grass lawns, chinch bug counts. The format is in vivo, Blissus hirsutus. The conditions noted are these: for number of southern chinch bugs per ft^2 (per 930 cm^2): bifenthrin 0.2 lb/A, imidacloprid 0.25 lb/A where applied. The procedure:
as §2
St. Augustine grass lawns, were treated in the summer of 2005 with either bifenthrin at 0.2 lb/A (220 g/ha) or with one of two combination products containing imidacloprid at 0.25 lb/A (280 g/ha) plus bifenthrin at 0.2 lb/A (220 g/ha). At the time of application, populations of chinch bugs were very low. The grass was irrigated and mowed according to local agronomic practices. Because of poor efficacy, imidacloprid is not used commercially for this application and thus was not tested alone in this study.
The numbers of chinch bugs in the lawns were counted at 40 days after application (DAT). After this time period, lawns treated with the combination products containing imidacloprid and bifenthrin had no chinch bugs.

The subject of test [4] is Japanese beetle (Popillia japonica). Description: Japanese beetle choice test on treated and untreated turfgrass cores. The format is in vivo. The settings on record: 4 days after infestation. The procedure: The following tests were performed to show the efficacy of combinations containing imidacloprid and bifenthrin against Japanese beetle eggs (Popillia japonica).
Turfgrass cores (6.4 cm in diameter, 7 cm deep) were set into tight-fitting paper cups. Four cores were arranged in an ABAB layout in cylindrical plastic cages (60 cm in diameter, 50 cm high) cages with lids that prevented any insects inside from escaping. The cages were sufficiently large to allow adult Japanese beetles to fly and/or crawl unimpeded from one core to another, thereby providing an experimental design that was an accurate measure of which type of turf (untreated or insecticide treated) the adult beetles preferred.
Tests were carried out using the following compositions compared to untreated controls: • Composition (1): Imidacloprid at 0.25 lb/A (about 280 g/ha) plus bifenthrin at 0.2 lb/A (about 220 g/ha) • Composition (2): Imidacloprid at 0.3 lb/A (about 340 g/ha)
Eight replicates of each paired comparison were tested. Gravid adult female Japanese beetles were collected from the field and eight females were placed in each cage. Tests were carried out at 25° C. and with 14 h photophase. One day after infestation, a piece of apple was added to the cage as a food/water source.
At 4 days after infestation, the numbers of adult beetles found in treated and untreated cores were counted. […]

As to `Cc1c(COC(=O)[C@@H]2[C@H](/C=C(\Cl)C(F)(F)F)C2(C)C)cccc1-c1ccccc1` (racemic) [Bifenthrin, 2-methylbiphenyl-3-ylmethyl (Z)-(1RS,3RS)-3-(2-chloro-3,3,3-trifluoroprop-1-enyl)-2,2-dimethylcyclopropane-carboxylate], in test [1], the “times less susceptible than a normal pyrethroid-susceptible population” value is given as 47 times. Further, the “average population of chinch bugs in each lawn” value in test [2] (October 2005, after several bifenthrin treatments at 0.2 lb/A, before the combination treatment) worked out at 571 bugs/ft^2. In addition, the results for the “control of southern chinch bugs (in words)” value in test [2] (lawns treated several times in summer 2005 at 0.2 lb/A (220 g/ha)) and in test [3] (overall conclusion from the table data) were “exceedingly poor” and “not effective”, respectively. In addition, the “number of southern chinch bugs per ft^2 (per 930 cm^2)” value in test [3] (0 DAT) is listed as 0 per ft^2 (per 930 cm^2); in test [3] (40 DAT) it was 250 per ft^2 (per 930 cm^2). The “chinch bugs in the lawns (in words)” value in test [3] (40 days after application (DAT)) was “economically damaging levels”.

With `O=[N+]([O-])NC1=NCCN1Cc1ccc(Cl)nc1` [Imidacloprid], in test [4] (choice against untreated cores, imidacloprid 0.25 lb/A plus bifenthrin 0.2 lb/A, or imidacloprid alone 0.3 lb/A, 25° C.), the “number of adult beetles found in treated cores” value stood at 3.8 beetles. Further, the “beetle preference between treated and untreated turf (in words)” value in test [4] (paired choice comparison) was “the beetles show preference”.

For the origin of these results see patent publication US8202527B2, “Method of combating turf pests with a combination of imidacloprid and bifenthrin” (priority 2005, dated 2012).
